Data from article PMC8780964, “Evaluation of the Pharmacokinetics of the Pancreastatin Inhibitor PSTi8 Peptide in Rats: Integration of In Vitro and In Vivo Findings” (Molecules, 2022).
Entries after “also recorded” stand apart in the source; their conditions may differ. Read-outs that look alike come from different tables or passages of the source. Ends that are not written are not given here.

Columns and labels:
Plasma stability study = assay type: in vitro ADME
Procedure: Fresh rat plasma (1 mL) was used and pre-incubated in a shaking water bath at 37 °C for 10 min. PSTi8 was added to rat plasma at a final concentration of 1 or 5 µM and then incubated for […] at 37 °C in a shaking water bath. A total of 100 µL samples were aliquoted at predetermined time points (0, 5, 15, 30, 60, 90, 120 and 240 min), followed by SPE processing and analyzed using the validated LC-MS/MS method. The plasma stability was determined as the % drug remaining at different time points relative to the drug at 0 min [19].

[1] = Plasma protein binding, modified charcoal adsorption method; assay type: in vitro ADME; settings: rat plasma
Procedure: The protein binding study of the PSTi8 peptide was conducted in rat plasma using the modified charcoal adsorption method. The suspension of dextran-coated charcoal (0.66%) was prepared in the DPBS buffer (pH 7.4) and stirred overnight (18 h), before the study. PSTi8 (2 µM and 5 µM) was prepared in 2.5 mL rat plasma and pre-incubated at 37 ± 0.5 °C for 15 min in a shaking water bath. The exact volume of the charcoal suspension, the same as the plasma, was centrifuged at 3000 g for 15 min to separate DPBS. The supernatant was decanted and the pre-incubated plasma was added to the charcoal pellet-containing tubes. Plasma-containing charcoal tubes were incubated under continuous stirring up to 4 h. A total of 200 µL samples were collected at the time points of 0, 5, 10, 20, 30, 45, 60, 90, 120 and 180 min, and then centrifuged at 11,000 g for 2.5 min. A total of 100 µL supernatant of the centrifuged sample was separated, extracted using SPE and analyzed with LC-MS/MS. The % peptide remaining in the supernatant plasma sample versus time points data was evaluated using the i.v. bolus two-compartment analysis model on Phoenix 6.3 WinNonlin (Pharsight Corporation, Saint Louis, MO, USA). The model is defined by the bi-exponential Equation (1):(1) B(t)=A1exp(−αt)+A2exp(−βt) where B(t) % is the bound peptide remaining at time t and where A1, A2, α and β are constants.

[2] = Stability in rat plasma in different storage conditions (bioanalytical validation); assay type: in vitro ADME
Procedure: A QTRAP-4000 AB Sciex (SCIEX, Concord, ON, Canada) mass spectrometer using an electrospray ionization source tandem with the Shimadzu UFLC system was utilized for the quantitative analysis. Quantification was performed for PSTi8 and IS with positive ionization mode, using prominent selected reaction monitoring transitions as 607.80/771.20 and 342.20/229.10 m/z, respectively. The chromatographic separation of PSTi8 and IS was accomplished on a Phenomenex Aqua 5µ 125A (250 × 4.6 mm) column using an isocratic mode of mobile phase (methanol:0.1 % formic acid, 50:50 % v/v) with 0.4 mL/min flow rate. The analysis run time was 10 min and the injection volume was 10 μL for each sample. Analyst 1.6 software was used to regulate the LC-MS/MS instrument and for data quantification. The plasma sample extraction involved the SPE procedure using MAX cartridges, as previously described. The LC-MS/MS bioanalytical assay of PSTi8 peptide was validated in rat plasma as per the USFDA bioanalytical method validation guidance. The bioanalytical method development and validation of PSTi8 in mice plasma was recently reported. The bioanalytical validation and stability studies were conducted in rat plasma, as described earlier.

[3] = parameters: method as in PMID 31891874; settings: i.p., mice; cited from earlier work
in vivo [4] = settings: male, SD, rat, 5 mg/kg
Procedure: (§1) Rats were distributed into three groups and each group contained 6 animals.
(§2) After dosing in rats, blood (250 µL) samples were collected in EDTA containing microcentrifuge tubes at 0.08, 0.16, 0.33, 0.50, 0.75, 1, 2, 3, 4, 5 and 6 h time points. Plasma was separated from the blood after centrifugation and kept in a −80 °C freezer for LC-MS/MS analysis.
(§3) The i.p. and s.c. PK were best described by a one-compartment first-order PK model without lag time. The i.v. PK was well explained by a one-compartment model with a bolus input and first-order elimination rate. The PK parameters include the elimination constant (K10), absorption constant (K01), Tmax, elimination half-life (K10-HL), absorption half-life (K01-HL), Cmax, AUC (stands for model derived AUC0-∞), CL/F, mean residence time (MRT) and Vd/F. The bioavailability of PSTi8 was determined using the ratio between the AUC from i.p. or s.c. and i.v. routes, after normalizing the dose.

in vivo [5] = settings: male, SD, rat, ip
Procedure: Male SD rats were utilized in this study and distributed into two groups (each group contained 6 animals). To each group, PSTi8 was administered i.p. at a dose of 10 and 20 mg/kg in rats.
as §2
The PK parameters of PSTi8 were estimated with a one-compartmental PK model in Phoenix WinNonlin. […] The PK parameters include the elimination constant (K10), absorption constant (K01), Tmax, elimination half-life (K10-HL), absorption half-life (K01-HL), Cmax, AUC (stands for model derived AUC0-∞), CL/F, mean residence time (MRT) and Vd/F. The bioavailability of PSTi8 was determined using the ratio between the AUC from i.p. or s.c. and i.v. routes, after normalizing the dose.

in vivo [6] = settings: female, SD, rat, ip, 5 mg/kg
Procedure: (§4) Female SD rats were utilized and distributed into two groups (each group contained 6 animals). To each group, a 5 mg/kg dose of PSTi8 was administered i.v. and i.p. for PK determination.
as §2
(§5) The PK parameters of PSTi8 were estimated with a one-compartmental PK model in Phoenix WinNonlin. The i.p. and s.c. PK were best described by a one-compartment first-order PK model without lag time. The i.v. PK was well explained by a one-compartment model with a bolus input and first-order elimination rate. The PK parameters include the elimination constant (K10), absorption constant (K01), Tmax, elimination half-life (K10-HL), absorption half-life (K01-HL), Cmax, AUC (stands for model derived AUC0-∞), CL/F, mean residence time (MRT) and Vd/F. The bioavailability of PSTi8 was determined using the ratio between the AUC from i.p. or s.c. and i.v. routes, after normalizing the dose.

C57Bl/6 mice = settings: mouse, in vivo; cited from earlier work
[7] = Gender difference PK study, i.v. and i.p., female SD rats
Procedure: as §4, §2, §5

[8] = PK and bioavailability after i.v., i.p. and s.c. administration in male SD rats; settings: for K01 (absorption constant) / K10 (elimination constant) / half-life: male SD rats
Procedure: as §1, §2, §3

[9] = female, SD, rat, plasma, ip, 5 mg/kg
[10] = female, SD, rat, plasma, iv, 5 mg/kg
[11] = male, SD, rat, plasma, ip, 5 mg/kg
[12] = male, SD, rat, plasma, iv, 5 mg/kg
[13] = male, SD, rat, plasma, sc, 5 mg/kg

For PEGKGEQEHSQQKEEEEEMAV-NH2 [PSTi8], the “stability in rat plasma (in words)” value (Plasma stability study) was “high stability; also recorded: stable”, the remaining at 4 h, 1 µM (Plasma stability study; 1 µM, at 4 h, rat plasma, 37 °C, read-out: plasma stability (% drug remaining)) was 88.8 ± 3.39% and the remaining at 4 h, 5 µM (Plasma stability study; 5 µM, at 4 h, rat plasma, 37 °C, read-out: plasma stability (% drug remaining)) was 90.6 ± 6.65%. For the same substance, the fraction unbound at 2 µM ([1]; 2 µM) was 0.264, the fraction unbound at 5 µM ([1]; 5 µM) was 0.307 and the fraction unbound ([1]; summary in abstract) was under 0.31. The “Accuracy (%) of stability sample” value ([2]; 0 h (for all), nominal 30 ng/mL) was 102.34%, the “Accuracy (%) of stability sample” value ([2]; 0 h (for all), nominal 400 ng/mL) was 101.56% and the “Accuracy (%) of stability sample” value ([2]; 0 h (for all), nominal 800 ng/mL) was 101.70%. For the same substance, the “Accuracy (%) of stability sample” value ([2]; Autosampler (4 °C, 12 h), nominal 30 ng/mL) was 112.60%, the “Accuracy (%) of stability sample” value ([2]; Autosampler (4 °C, 12 h), nominal 400 ng/mL) was 94.13% and the “Accuracy (%) of stability sample” value ([2]; Autosampler (4 °C, 12 h), nominal 800 ng/mL) was 99.90%. The “Accuracy (%) of stability sample” value ([2]; Bench-top (2 h), nominal 30 ng/mL) was 96.27%, the “Accuracy (%) of stability sample” value ([2]; Bench-top (2 h), nominal 400 ng/mL) was 96.17% and the “Accuracy (%) of stability sample” value ([2]; Bench-top (2 h), nominal 800 ng/mL) was 106.70%. For the same substance, the “Accuracy (%) of stability sample” value ([2]; Bench-top (6 h), nominal 30 ng/mL) was 103.47%, the “Accuracy (%) of stability sample” value ([2]; Bench-top (6 h), nominal 400 ng/mL) was 93.00% and the “Accuracy (%) of stability sample” value ([2]; Bench-top (6 h), nominal 800 ng/mL) was 97.97%. The “Accuracy (%) of stability sample” value ([2]; Long term (-80°C, 30 days), nominal 30 ng/mL) was 110.13%, the “Accuracy (%) of stability sample” value ([2]; Long term (-80°C, 30 days), nominal 400 ng/mL) was 102.87% and the “Accuracy (%) of stability sample” value ([2]; Long term (-80°C, 30 days), nominal 800 ng/mL) was 108.03%. For the same substance, the “Accuracy (%) of stability sample” value ([2]; Three freeze-thaw cycles, nominal 30 ng/mL) was 101.30%, the “Accuracy (%) of stability sample” value ([2]; Three freeze-thaw cycles, nominal 400 ng/mL) was 106.30% and the “Accuracy (%) of stability sample” value ([2]; Three freeze-thaw cycles, nominal 800 ng/mL) was 108.77%. For the same substance, the “stability in rat plasma with diverse storage conditions (in words)” value ([2]; storage conditions of Table S2) was “stable”, the bioavailability [3] was 52% and the CL/F (in vivo [4]; ip) was 10.3 mL/min/kg. It also gave a Vd/F (in vivo [4]; ip) of 0.39 ± 0.06 L/kg, a CL/F (in vivo [4]; sc) of 12.8 mL/min/kg and a Vd/F (in vivo [4]; sc) of 0.46 ± 0.09 L/kg. The CL/F (in vivo [5]; 10 mg/kg) was 5.17 mL/min/kg, the Vd/F (in vivo [5]; 10 mg/kg) was 0.26 ± 0.09 L/kg and the CL/F (in vivo [5]; 20 mg/kg) was 3.17 mL/min/kg. For the same substance, the Vd/F (in vivo [5]; 20 mg/kg) was 0.15 ± 0.03 L/kg, the CL/F (in vivo [6]) was 9.5 mL/min/kg and the Vd/F (in vivo [6]) was 0.26 ± 0.01 L/kg. For the same substance, the toxicity finding (C57Bl/6 mice) was “safe and non-toxic”, the AUC [7, 9] was 9980 ± 523 ng·h/mL and the AUC(0-inf) [7, 9] was 8820 ± 589 ng·h/mL. It also gave a Cmax [7, 9] of 7000 ± 216 ng/mL, a Tmax [7, 9] of 28.8 min and a bioavailability [7, 9] of 91.9 ± 6.14%. For the same substance, the half-life [7, 9] was 19.2 ± 1.2 min, the AUC(0-inf) [7, 10] was 9590 ± 1750 ng·h/mL and the Cmax [7, 10] was 42600 ng/mL. For the same substance, the MRT [7, 10] was 13.2 ± 1.2 min, the half-life [7, 10] was 9.6 ± 1.2 min and the “K01 (absorption constant)” value ([7]; i.p. 5 mg/kg, female SD rats) was 2.14 ± 0.12 h⁻¹. For the same substance, the “K10 (elimination constant)” value ([7]; i.p. 5 mg/kg, female SD rats) was 2.19 ± 0.18 h⁻¹, the “K10-HL (elimination half-life)” value ([7]; i.p. 5 mg/kg, female SD rats) was 0.32 ± 0.02 h and the “K10 (elimination constant)” value ([7]; i.v. 5 mg/kg, female SD rats) was 4.50 ± 0.48 h⁻¹. The “gender difference in PK parameters and bioavailability” value ([7]; male vs female SD rats, 5 mg/kg i.p. and i.v., 5 mg/kg) was “no gender differences; also recorded: no significant difference”, the “K01 (absorption constant)” value ([8]; i.p. 5 mg/kg) was 2.90 ± 0.89 h⁻¹ and the “K10 (elimination constant)” value ([8]; i.p. 5 mg/kg) was 1.63 ± 0.33 h⁻¹. The “K10 (elimination constant)” value ([8]; i.v. 5 mg/kg) was 3.79 ± 2.19 h⁻¹, the AUC(0-inf) [8, 11] was 8100 ± 1040 ng·h/mL and the Cmax [8, 11] was 6050 ± 348 ng/mL. For the same substance, the Tmax [8, 11] was 28.8 min, the bioavailability [8, 11] was 95 ± 12.2% and the half-life ([8]; male, SD, rat, plasma, ip, 5 mg/kg, K01-HL (absorption half-life), i.p. 5 mg/kg) was 15.6 ± 5.4 min. The half-life ([8]; male, SD, rat, plasma, ip, 5 mg/kg, K10-HL (elimination half-life), i.p. 5 mg/kg) was 26.4 ± 6 min, the AUC(0-inf) [8, 12] was 8530 ± 1600 ng·h/mL and the Cmax [8, 12] was 30200 ± 14600 ng/mL. The MRT [8, 12] was 21.6 ± 15.6 min, the half-life ([8]; male, SD, rat, plasma, iv, 5 mg/kg, K10-HL (elimination half-life), i.v. 5 mg/kg) was 15 ± 10.8 min and the AUC(0-inf) [8, 13] was 6690 ± 1510 ng·h/mL. The Cmax [8, 13] was 4110 ± 888 ng/mL, the Tmax [8, 13] was 36 min and the bioavailability [8, 13] was 78.5 ± 17.7%. The half-life ([8]; male, SD, rat, plasma, sc, 5 mg/kg, K01-HL (absorption half-life), s.c. 5 mg/kg) was 24.6 ± 0.6 min, the half-life ([8]; male, SD, rat, plasma, sc, 5 mg/kg, K10-HL (elimination half-life), s.c. 5 mg/kg) was 25.2 ± 0.24 min and the “K01 (absorption constant)” value ([8]; s.c. 5 mg/kg) was 1.68 ± 0.02 h⁻¹. For the same substance, the “K10 (elimination constant)” value ([8]; s.c. 5 mg/kg) was 1.66 ± 0.01 h⁻¹.
